Data: the NIST ThermoML archive (doi:10.1021/je400055v)

Experiment: xn = mol fraction of the nth substance listed
Details: Liquid, Vibrating tube method

CCCCCCCCCCC [undecane] + CCCCCCC
Details | mass density [kg/m3]
313.15 K, 23000 kPa, x2 = 0.05 | 740.6
313.15 K, 23000 kPa, x2 = 0.7482 | 706.2
313.15 K, 24000 kPa, x2 = 0.05 | 741.3
313.15 K, 24000 kPa, x2 = 0.7482 | 707
313.15 K, 25000 kPa, x2 = 0.05 | 741.9
313.15 K, 25000 kPa, x2 = 0.7482 | 707.7
313.16 K, 1000 kPa, x2 = 0.2346 | 716.5
313.16 K, 2001 kPa, x2 = 0.2346 | 717.4
313.16 K, 3000 kPa, x2 = 0.2346 | 718.3
313.16 K, 4001 kPa, x2 = 0.2346 | 719.2
313.16 K, 5000 kPa, x2 = 0.2346 | 720
313.16 K, 6000 kPa, x2 = 0.2346 | 720.8
313.16 K, 7000 kPa, x2 = 0.2346 | 721.7
313.16 K, 8000 kPa, x2 = 0.2346 | 722.5
313.16 K, 9000 kPa, x2 = 0.2346 | 723.3
313.16 K, 10000 kPa, x2 = 0.2346 | 724.1
313.16 K, 11001 kPa, x2 = 0.2346 | 724.8
313.16 K, 12000 kPa, x2 = 0.2346 | 725.6
313.16 K, 13000 kPa, x2 = 0.2346 | 726.4
313.16 K, 14000 kPa, x2 = 0.2346 | 727.1
313.16 K, 15000 kPa, x2 = 0.2346 | 727.8
313.16 K, 16000 kPa, x2 = 0.2346 | 728.6
313.16 K, 17000 kPa, x2 = 0.2346 | 729.3
313.16 K, 18000 kPa, x2 = 0.2346 | 730
313.16 K, 19000 kPa, x2 = 0.2346 | 730.7
313.16 K, 20000 kPa, x2 = 0.2346 | 731.4
313.16 K, 21000 kPa, x2 = 0.2346 | 732.1
313.16 K, 22000 kPa, x2 = 0.2346 | 732.7
313.16 K, 23000 kPa, x2 = 0.2346 | 733.4
313.16 K, 24000 kPa, x2 = 0.2346 | 734
313.16 K, 25000 kPa, x2 = 0.2346 | 734.7
323.09 K, 1001 kPa, x2 = 0.9511 | 663.1
323.09 K, 2000 kPa, x2 = 0.9511 | 664.3
323.09 K, 3000 kPa, x2 = 0.9511 | 665.4
323.09 K, 4000 kPa, x2 = 0.9511 | 666.6
323.09 K, 5000 kPa, x2 = 0.9511 | 667.7
323.09 K, 6000 kPa, x2 = 0.9511 | 668.8
323.09 K, 7000 kPa, x2 = 0.9511 | 669.9
323.09 K, 8000 kPa, x2 = 0.9511 | 670.9
323.09 K, 9000 kPa, x2 = 0.9511 | 672
323.09 K, 10000 kPa, x2 = 0.9511 | 673
323.09 K, 11000 kPa, x2 = 0.9511 | 674
323.09 K, 12000 kPa, x2 = 0.9511 | 675
323.09 K, 13000 kPa, x2 = 0.9511 | 675.9
323.09 K, 14001 kPa, x2 = 0.9511 | 676.9
323.09 K, 15001 kPa, x2 = 0.9511 | 677.8
323.09 K, 16000 kPa, x2 = 0.9511 | 678.7
323.09 K, 17001 kPa, x2 = 0.9511 | 679.6
323.09 K, 18001 kPa, x2 = 0.9511 | 680.5
323.09 K, 19000 kPa, x2 = 0.9511 | 681.4
323.09 K, 20000 kPa, x2 = 0.9511 | 682.3
323.09 K, 21001 kPa, x2 = 0.9511 | 683.1
323.09 K, 22000 kPa, x2 = 0.9511 | 683.9
323.09 K, 23001 kPa, x2 = 0.9511 | 684.8
323.09 K, 24000 kPa, x2 = 0.9511 | 685.6
323.09 K, 25000 kPa, x2 = 0.9511 | 686.3
323.11 K, 2001 kPa, x2 = 0.5063 | 695.8
323.11 K, 3000 kPa, x2 = 0.5063 | 696.8
323.11 K, 4000 kPa, x2 = 0.5063 | 697.8
323.11 K, 5000 kPa, x2 = 0.5063 | 698.8
323.11 K, 6000 kPa, x2 = 0.5063 | 699.7
323.11 K, 7000 kPa, x2 = 0.5063 | 700.7
323.11 K, 8001 kPa, x2 = 0.5063 | 701.6
323.11 K, 9000 kPa, x2 = 0.5063 | 702.5
323.11 K, 10000 kPa, x2 = 0.5063 | 703.4
323.11 K, 11000 kPa, x2 = 0.5063 | 704.3
323.11 K, 12000 kPa, x2 = 0.5063 | 705.1
323.11 K, 13000 kPa, x2 = 0.5063 | 706
323.11 K, 14000 kPa, x2 = 0.5063 | 706.8
323.11 K, 15000 kPa, x2 = 0.5063 | 707.6
323.11 K, 16000 kPa, x2 = 0.5063 | 708.5
323.11 K, 17001 kPa, x2 = 0.5063 | 709.3
323.11 K, 18000 kPa, x2 = 0.5063 | 710.1
323.11 K, 19000 kPa, x2 = 0.5063 | 710.8
323.11 K, 20000 kPa, x2 = 0.5063 | 711.6
323.11 K, 21001 kPa, x2 = 0.5063 | 712.4
323.11 K, 22050 kPa, x2 = 0.5063 | 713.1
323.11 K, 23000 kPa, x2 = 0.5063 | 713.9
323.11 K, 24000 kPa, x2 = 0.5063 | 714.6
323.11 K, 25000 kPa, x2 = 0.5063 | 715.3
323.12 K, 1000 kPa, x2 = 0.7482 | 679.1
323.12 K, 1001 kPa, x2 = 0.05 | 716.7
323.12 K, 2000 kPa, x2 = 0.7482 | 680.2
323.12 K, 2001 kPa, x2 = 0.05 | 717.6
323.12 K, 3000 kPa, x2 = 0.05 | 718.5
323.12 K, 3000 kPa, x2 = 0.7482 | 681.3
323.12 K, 4000 kPa, x2 = 0.05 | 719.4
323.12 K, 4000 kPa, x2 = 0.7482 | 682.3
323.12 K, 5000 kPa, x2 = 0.05 | 720.3
323.12 K, 5000 kPa, x2 = 0.7482 | 683.4
323.12 K, 6000 kPa, x2 = 0.05 | 721.1
323.12 K, 6000 kPa, x2 = 0.7482 | 684.4
323.12 K, 7000 kPa, x2 = 0.05 | 722
